Measured values: PMC5327911 (Clinical Pharmacology : Advances and Applications, 2017)
Like-named read-outs stand apart in the source and are kept apart here. Each block holds one compound with its values, some of them ahead of it.

How the values were obtained:
[1] = format: in vivo, human
[2] = test system: CYP system; conditions: cited from earlier work
[3] = Safety; format: in vivo, human
[4] = cited from earlier work
[5] = cited from earlier work; remark: listed apart in the source
[6] = test system: CYP3A4 or other CYP isoenzymes; conditions: cited from earlier work
[7] = Safety; format: in vivo, human; remark: listed apart in the source
[8] = apixaban 10 mg + atenolol 100 mg vs apixaban 10 mg

- Tmax ([1]; digoxin, Treatment B, digoxin 0.25 mg + apixaban 20 mg, day 20, median (min, max)): 1.00 (1.0, 2.0) h
- AUC ([1]; human, serum, oral, 0.25 mg): 16.8 ng·h/mL
- Cmax ([1]; human, serum, oral, 0.25 mg): 1.68 ng/mL
SMILES: C[C@H]1O[C@@H](O[C@H]2[C@@H](O)C[C@H](O[C@H]3[C@@H](O)C[C@H](O[C@H]4CC[C@@]5(C)[C@H](CC[C@@H]6[C@@H]5C[C@@H](O)[C@]5(C)[C@@H](C7=CC(=O)OC7)CC[C@]65O)C4)O[C@@H]3C)O[C@@H]2C)C[C@H](O)[C@@H]1O [Digoxin, digoxin]
- induction or inhibition of the CYP system [2]: does not appear to induce or inhibit
- Tolerability of coadministration with apixaban ([3]; healthy subjects, digoxin 0.25 mg + apixaban 20 mg): generally well tolerated

SMILES: COc1ccc(-n2nc(C(N)=O)c3c2C(=O)N(c2ccc(N4CCCCC4=O)cc2)CC3)cc1 [Apixaban]
- Effect of apixaban on the PK of digoxin ([1]; apixaban 20 mg once daily, digoxin 0.25 mg once daily): no effect
- bound to serum proteins ([4]; apixaban): 87%
- protein-bound [4]: 87%
- mean elimination half-life (t1/2) ([5]; apixaban in healthy subjects): ~ 12 hours
- lower apixaban AUCinf in subjects ≥120 kg ([5]; effect of body weight): 23%
- lower apixaban Cmax in subjects ≥120 kg ([5]; effect of body weight): 31%
- Decrease in apixaban AUC0–t when coadministered with atenolol [8]: 15%
- Decrease in apixaban AUCinf when coadministered with atenolol [8]: 15%
- Decrease in apixaban Cmax when coadministered with atenolol [8]: 18%
- Pharmacokinetic interaction between apixaban and atenolol (apixaban 10 mg, atenolol 100 mg, single doses): no clinically relevant interaction
- AUCinf (apixaban, Treatment C, apixaban 10 mg + atenolol 100 mg, geometric mean (CV %), n=14): 1878 (33) ng·h/mL
- AUC(0-inf) (human, plasma, oral, 10 mg): 2160 ng·h/mL
- AUC(0-t) (human, plasma, oral, 10 mg): 2100 ng·h/mL
- Cmax (human, plasma, oral, 10 mg): 216 ng/mL
- Tmax (human, plasma, oral, 10 mg): 3 h
- half-life (human, plasma, oral, 10 mg): 13.9 h
- inhibition or induction of CYP3A4 or other CYP isoenzymes [6]: does not inhibit or induce
- Number of AEs ([7]; apixaban 10 mg alone, none bleeding-related): five
- Deaths, serious AEs, major bleeding-related AEs ([7]; single doses of apixaban 10 mg, atenolol 100 mg, or both): No deaths, serious AEs, or major bleeding-related AEs
- Deaths, serious AEs, major bleeding-related AEs ([3]; digoxin 0.25 mg, then digoxin 0.25 mg + apixaban 20 mg once daily): No deaths, serious AEs, or major bleeding-related AEs

SMILES: CC(C)NCC(O)COc1ccc(CC(N)=O)cc1 (centres unmarked) [Atenolol, atenolol]
- Tolerability of coadministration with apixaban ([7]; healthy subjects, atenolol 100 mg + apixaban 10 mg): generally well tolerated
